Legend:
[1] = system: fungal biofilms (C. albicans); test: biofilm assays (sustained inhibition and/or disruption), fungal; type: cell-based, Candida albicans; conditions: Tables 4 and 5
Description: Other amino acids in the blood of animals could combat bacterial and fungal biofilm and therefore may be useful in treating these bacterial and fungal infections that would lie on the external surfaces of infected animals such as humans and could also be used to combat these pathogens on instruments and surfaces that need to be treated. Two types of biofilm assays were performed: a sustained inhibition assay and a disruption assay. The sustained inhibition assay assessed the compound's ability to prevent biofilm development throughout all stages of biofilm formation, while the disruption assay assessed the compound's ability to break up an existing mature biofilm. For fungal biofilm assays, all solutions were prepared in RPMI 1640 medium. All bacterial biofilm solutions were prepared in Tryptic Soy Broth (TSB), supplemented with 1% glucose (henceforth referred to as TSB-G). All subsequent procedures were performed in a manner that maintained sterility. […] Amino acids were also tested in combinations. Compound solutions were homogenized with gentle agitation in the dark (4° C., 24 hours) before use. Fungal strains were streaked on Yeast Peptone Dextrose (YPD) agar plates and incubated at 30° C. for 48 hours. A single colony from each strain to be tested was inoculated into YPD broth and grown for 12 hours, at 30° C., shaking at 225 rpm. For the fungal biofilm inhibition assay, 1 μl of saturated overnight cell culture was added to either 80 μL of RPMI-1640 or RPMI-1640 supplemented with the amino acid compound solution to be tested, in a 384-well plate. The cells were allowed to adhere to the plate for 90 minutes at 37° C. shaking at 350 rpm. Loosely bound cells were washed once with phosphate buffered saline (PBS) and 80 μl of RPMI-1640, or RPMI-1640 supplemented with the amino acid compound solution was added to the plate. The plate was further incubated for 24 hours at 37° C. shaking at 350 rpm. Media was carefully aspirated and the biofilm was measured by optical density at 600 nm. Twelve replicates were performed for each tested condition and the reported values are normalized to the control (RPMI-1640 media only). For the fungal biofilm disruption assays, 80 μL of RPMI-1640 was added to the plate, along with 1 μL of overnight cell culture. The cells were allowed to adhere to the plate for 90 minutes at 37° C. shaking at 350 rpm. Loosely bound cells were washed once with PBS and 80 μL of RPMI-1640 was added to the plate. The plate was further incubated for 24 hours at 37° C. shaking at 350 rpm. Media was carefully aspirated from the mature biofilm and 80 μL of RPMI-1640, or RPMI-1640 supplemented with the amino acid compound solution to be tested, was gently added to the plate. The plate was further incubated for 24 hours at 37° C. shaking at 350 rpm. Media was carefully aspirated and the biofilm was measured by optical density at 600 nm. Twelve replicates were performed for each tested condition and the reported values are normalized to the control (RPMI-1640 media only).

[2] = system: Candida and Staphylococcus biofilms; test: biofilm assays (sustained inhibition and disruption), bacterial and fungal; type: cell-based, Candida albicans; Staphylococcus aureus; conditions: Tables 4 and 5
Description: In vitro biofilm formation was tested using two assays, sustained inhibition and disruption. Both assays assess biofilm formed on polystyrene plates. The first, tests the effects of amino acid solution on a developing biofilm, while the latter tests the effects of the solution on a pre-formed mature biofilm, both compared to media without supplemented amino acids.
Other amino acids in the blood of animals could combat bacterial and fungal biofilm and therefore may be useful in treating these bacterial and fungal infections that would lie on the external surfaces of infected animals such as humans and could also be used to combat these pathogens on instruments and surfaces that need to be treated. Two types of biofilm assays were performed: a sustained inhibition assay and a disruption assay. The sustained inhibition assay assessed the compound's ability to prevent biofilm development throughout all stages of biofilm formation, while the disruption assay assessed the compound's ability to break up an existing mature biofilm.
For fungal biofilm assays, all solutions were prepared in RPMI 1640 medium. All bacterial biofilm solutions were prepared in Tryptic Soy Broth (TSB), supplemented with 1% glucose (henceforth referred to as TSB-G). All subsequent procedures were performed in a manner that maintained sterility. A solution of each amino acid to be tested was prepared in weight to volume concentrations ranging from 0.1-5.0%. Amino acids were also tested in combinations. Compound solutions were homogenized with gentle agitation in the dark (4° C., 24 hours) before use.
Fungal strains were streaked on Yeast Peptone Dextrose (YPD) agar plates and incubated at 30° C. for 48 hours. A single colony from each strain to be tested was inoculated into YPD broth and grown for 12 hours, at 30° C., shaking at 225 rpm. For the fungal biofilm inhibition assay, 1 μl of saturated overnight cell culture was added to either 80 μL of RPMI-1640 or RPMI-1640 supplemented with the amino acid compound solution to be tested, in a 384-well plate. The cells were allowed to adhere to the plate for 90 minutes at 37° C. shaking at 350 rpm. Loosely bound cells were washed once with phosphate buffered saline (PBS) and 80 μl of RPMI-1640, or RPMI-1640 supplemented with the amino acid compound solution was added to the plate. The plate was further incubated for 24 hours at 37° C. shaking at 350 rpm. Media was carefully aspirated and the biofilm was measured by optical density at 600 nm. Twelve replicates were performed for each tested condition and the reported values are normalized to the control (RPMI-1640 media only). For the fungal biofilm disruption assays, 80 μL of RPMI-1640 was added to the plate, along with 1 μL of overnight cell culture. The cells were allowed to adhere to the plate for 90 minutes at 37° C. shaking at 350 rpm. Loosely bound cells were washed once with PBS and 80 μL of RPMI-1640 was added to the plate. The plate was further incubated for 24 hours at 37° C. shaking at 350 rpm. Media was carefully aspirated from the mature biofilm and 80 μL of RPMI-1640, or RPMI-1640 supplemented with the amino acid compound solution to be tested, was gently added to the plate. The plate was further incubated for 24 hours at 37° C. shaking at 350 rpm. Media was carefully aspirated and the biofilm was measured by optical density at 600 nm. Twelve replicates were performed for each tested condition and the reported values are normalized to the control (RPMI-1640 media only).
Bacterial strains were streaked on Blood Agar plates (5% sheep blood in Tryptic Soy Agar) and incubated at 37° C. for 24 hours. A single colony from each strain to be tested was inoculated in a TSB broth and grown for 12 hours, at 37° C. shaking at 225 rpm. For the bacterial biofilm inhibition assays, 1 μL of saturated overnight cell culture was added to either 80 μL of TSB-G, or TSB-G supplemented with the amino acid compound solution to be tested, in a 384-well plate. […]

SMILES	effect on C. albicans biofilms in inhibition and disruption assays [1]	effect on Candida and Staphylococcus biofilms in inhibition and disruption assays [2]
N[C@@H](CS)C(=O)O [Cysteine, L-cysteine]	both inhibited and disrupted	both inhibit and disrupt
N[C@@H](CCC(=O)O)C(=O)O [Glutamic Acid, L-glutamic acid]	both inhibited and disrupted	both inhibit and disrupt
N[C@@H](CC(=O)O)C(=O)O [Aspartic Acid, L-aspartic acid]	both inhibited and disrupted	both inhibit and disrupt
